According to patent publication US20080260650A1, “Methods of Detection and Therapy of Inflamed Tissues Using Immune Modulation” (THE GENERAL HOSPITAL Corporation, priority 2004, published 2008):

System: infected lesion (Candida albicans, left thigh)
Assay type: in vivo, mice (C57/BL)
Conditions: Candida-inoculated mice, day 8; GMCSF intramuscularly 3 days before PET; FDG 2 mCi/Kg via tail vein, PET 3 hours later; p<0.05 vs pre-GMCSF
Method: Candida albicans was suspended in saline to achieve a concentration of 2.5×10^9 yeast cells/ml. Three mice (C57/BL, Jackson Laboratories, Bar Harbor, Me.) were injected intramuscularly in the left thigh with 5×10^8 Candida albicans cells suspended in 0.2 ml of saline. The right thigh was injected with 0.2 ml of saline as a control.
Imaging of the animals was performed on days 5 and 8 after Candida inoculation. […] GMCSF was administered intramuscularly immediately after the first PET images were obtained (3 days prior to the second PET imaging).

Substance: GMCSF: granulocyte-macrophage colony stimulating factor, immune modulator; FDA approved under the tradename Leukine
- FDG uptake within the infected lesion, post-GMCSF: 8150 nCi/cc
